Test results taken from ChEMBL document CHEMBL4400517, “Marine natural products as potential anti-tubercular agents” (Eur J Med Chem, 2019).
In brackets after ≈: the same amount, converted by molar mass.

Columns and labels:
Conditions in all cases: variant bovis BCG
[1] = tested on: Mycobacterium tuberculosis; test: Antibiofilm activity against Mycobacterium bovis BCG after 5 weeks; format: functional
[2] = tested on: Mycobacterium tuberculosis; test: Antimycobacterial activity against Mycobacterium bovis BCG; format: functional
[3] = tested on: Mycobacterium tuberculosis; test: Antibiofilm activity against Mycobacterium bovis BCG; format: functional, organism-based

SMILES | MIC [2] | other results
CC(C)=C/C=C\[C@H](C)[C@H]1CC[C@]2(C)C[C@H]3[C@H](C(=O)C[C@@]3(C)O)/C(C=O)=C\C[C@@H]12 | – | MIC [1]: 8.2 µM (≈ 3.15 µg/mL)
COC(=O)N[C@H]1[C@@H](C)O[C@@H](O[C@H]2C/C=C(\C)[C@@H]3C=C[C@@H]4[C@@H](O[C@@H]5C[C@@H](O[C@@H]6C[C@@H](O)[C@@H](O[C@H]7C[C@@H](C)[C@H](OC)[C@H](O)C7)[C@H](C)O6)[C@@H](O)[C@H](C)O5)[C@@H](C)C[C@H](C)[C@H]4[C@]3(C)C(=O)C3=C(O)[C@@]4(C[C@@H](C)C(CO)=C[C@H]4/C=C/2C)OC3=O)C[C@]1(C)N | 1.35 µM (≈ 1.56 µg/mL) | –
C=CC(C)(C)c1[nH]c2ccccc2c1/C=c1\[nH]c(=O)c2n(c1=O)CCC=2C1=c2c(=O)[nH]/c(=C\c3c(C(C)(C)C=C)[nH]c4ccccc34)c(=O)n2CC1 | 9.03 µM (≈ 6.26 µg/mL) | –
COC(=O)N[C@H]1[C@@H](C)O[C@@H](O[C@H]2C/C=C(\C)[C@@H]3C=C[C@@H]4[C@@H](O[C@@H]5C[C@@H](O[C@@H]6C[C@@H](O)[C@@H](O[C@H]7C[C@@H](C)[C@H](OC)[C@H](O)C7)[C@H](C)O6)[C@@H](O)[C@H](C)O5)[C@@H](C)C[C@H](C)[C@H]4[C@]3(C)C(=O)C3=C(O)[C@@]4(C[C@@H](C)C(COC(C)=O)=C[C@H]4/C=C/2C)OC3=O)C[C@]1(C)N | 1.3 µM (≈ 1.56 µg/mL) | –
COC(=O)N[C@H]1[C@@H](C)O[C@@H](O[C@H]2C/C=C(\C)[C@@H]3C=C[C@@H]4[C@@H](O[C@@H]5C[C@@H](O[C@@H]6C[C@@H](O)[C@@H](O[C@H]7C[C@@H](C)[C@H](OC)[C@H](O)C7)[C@H](C)O6)[C@@H](O)[C@H](C)O5)[C@@H](C)C[C@H](C)[C@H]4[C@]3(C)C(=O)C3=C(O)[C@@]4(C[C@@H](C)C(CO)=C[C@H]4/C=C/2C)OC3=O)C[C@]1(C)[N+](=O)[O-] | 0.66 µM (≈ 0.782 µg/mL) | –
COc1ccc2c(c1)CC1=C2[C@H](O)[C@@]2(O)C(=O)N3CCC[C@H]3C(=O)N2[C@H]1C=C(C)C | 2.41 µM (≈ 0.989 µg/mL) | –
CC(C)=C1C[C@H]2C(C)(C)[C@@]3(Br)C(=O)c4c(O)cc(O)cc4[C@]2(C1)C3=O | – | IC50 [3]: 220 to 13900 nM
COc1cc(O)c2c(c1)[C@@]13CC(=C(C)C)C[C@H]1[C@](C)(CCC=C(C)C)[C@@](Br)(C2=O)C3=O | – | IC50 [3]: 640 to 10300 nM
COc1cc(OC)c2c(c1)[C@@]13CC(=C(C)C)C[C@H]1[C@](C)(CCC=C(C)C)[C@@](Br)(C2=O)C3=O | – | IC50 [3]: 160 to 2500 nM
C1=C2CCCC/C=C\C=C\CCN3CC[C@@H]4[C@H](CCCCCC/C=C\C=C/CCN(C2)C[C@H]14)C3 (relative stereo) [HALICYCLAMINE A] | 2.16 to 10.8 µM (≈ 1 to 5.01 µg/mL) | –
O=C1N[C@@H](Cc2c[nH]c3ccccc23)C(=O)N2CCC[C@@H]12 [BREVIANAMIDE F] | 44.2 µM (≈ 12.5 µg/mL) | –
NNC(=O)c1ccncc1 [ISONIAZID] | 0.36 µM (≈ 0.0494 µg/mL) | –
COC(=O)Nc1coc(C(=O)Nc2coc(C(=O)NCCc3ccc(O)cc3)c2)c1 [PROXIMICIN B] | 15.1 µM (≈ 6.25 µg/mL) | –
CO[C@H]1/C=C/O[C@@]2(C)Oc3c(C)c(O)c4c(O)c(c(/C=N/N5CCN(C)CC5)c(O)c4c3C2=O)NC(=O)/C(C)=C\C=C\[C@H](C)[C@H](O)[C@@H](C)[C@@H](O)[C@@H](C)[C@H](OC(C)=O)[C@@H]1C [RIFAMPIN] | – | IC50 [3]: 1220 nM
